Data from PubChem BioAssay (NCI).
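Exposure lasted 48 hours, with cells grown in 96-well plates and compounds tested at five concentrations. GI50 marks 50% less growth. Definition used: TGI = concentration required for complete inhibition of growth.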

Assays:
Assay in all cases: NCI anticancer screen, dose series, 48 h
[1] = system: NCI-H522 lung
[2] = system: SF-539 CNS
[3] = system: PC-3 prostate
[4] = system: K-562 leukemia
[5] = system: A549 NSCLC
[6] = system: TK-10 renal
[7] = system: CAKI-1 renal
[8] = system: CCRF-CEM leukemia
[9] = system: UO-31 renal
[10] = system: HCT-15 colon
[11] = system: A498 renal
[12] = system: RPMI-8226 leukemia
[13] = system: EKVX NSCLC
[14] = system: U251 CNS
[15] = system: KM12 colon
[16] = system: MCF7 breast
[17] = system: LOX IMVI melanoma
[18] = system: OVCAR-8 ovarian
[19] = system: MOLT-4 leukemia
[20] = system: UACC-257 melanoma
[21] = system: SW-620 colon
[22] = system: MDA-MB-435
[23] = system: MDA-MB-231 breast
[24] = system: SF-295 CNS
[25] = system: UACC-62 melanoma
[26] = system: NCI-H23 lung
[27] = system: SK-MEL-5 melanoma
[28] = system: SK-MEL-2 melanoma
[29] = system: NCI-H460 lung
[30] = system: HOP-62 NSCLC
[31] = system: OVCAR-5 ovarian
[32] = system: 786-0 renal
[33] = system: HS 578T breast
[34] = system: ACHN renal
[35] = system: IGROV1 ovarian
[36] = system: SR leukemia
[37] = system: BT-549 breast
[38] = system: M14 melanoma
[39] = system: HCC-2998 colon
[40] = system: NCI-H226 lung
[41] = system: OVCAR-3 ovarian
[42] = system: SF-268 CNS
[43] = system: NCI/ADR-RES ovarian
[44] = system: RXF 393 renal
[45] = system: COLO 205 colon
[46] = system: HCT-116 colon
[47] = system: SN12C renal
[48] = system: OVCAR-4 ovarian
[49] = system: HOP-92 NSCLC
[50] = system: SK-OV-3 ovarian
[51] = system: T-47D breast
[52] = system: DU-145 prostate
[53] = system: MALME-3M melanoma

## NC(N)=N/N=C/c1c(-c2cccnc2)nc2sc(Cl)cn12
[1]
  GI50: 30.6 µM
  TGI: > 100 µM
[2]
  GI50: 13.4 µM
  TGI: 26.3 µM
[3]
  GI50: 15.2 µM
  TGI: 28.5 µM
[4]
  GI50: 19.1 µM
  TGI: 43.3 µM
[5]
  GI50: 18.7 µM
  TGI: 40.1 µM
[6]
  GI50: 15.4 µM
  TGI: 29.3 µM
[7]
  GI50: 20.5 µM
  TGI: 43.4 µM
[8]
  GI50: 6.66 µM
  TGI: 23.9 µM
[9]
  GI50: 33.8 µM
  TGI: > 100 µM
[10]
  GI50: 14.9 µM
  TGI: 28.1 µM
[11]
  GI50: 20.6 µM
  TGI: 37.6 µM
[12]
  GI50: 18 µM
  TGI: 42 µM
[13]
  GI50: 16.7 µM
  TGI: 32.9 µM
[14]
  GI50: 13.3 µM
  TGI: 26.1 µM
[15]
  GI50: 3.95 µM
  TGI: 14.3 µM
[16]
  GI50: 8.27 µM
  TGI: > 100 µM
[17]
  GI50: 12.4 µM
  TGI: 24.8 µM
[18]
  GI50: 16.5 µM
  TGI: 38.7 µM
[19]
  GI50: 13.6 µM
  TGI: 31.6 µM
[20]
  GI50: 20.4 µM
  TGI: 40.5 µM
[21]
  GI50: 6.13 µM
  TGI: 20.7 µM
[22]
  GI50: 16.6 µM
  TGI: 30.5 µM
[23]
  GI50: 7.95 µM
  TGI: 21.9 µM
[24]
  GI50: 13.8 µM
  TGI: 28.1 µM
[25]
  GI50: 14.1 µM
  TGI: 27.1 µM
[26]
  GI50: 16.1 µM
  TGI: 31.7 µM
[27]
  GI50: 15.2 µM
  TGI: 28.6 µM
[28]
  GI50: 42.8 µM
  TGI: > 100 µM
[29]
  GI50: 61.2 µM
  TGI: > 100 µM
[30]
  GI50: 18 µM
  TGI: 31.9 µM
[31]
  GI50: 12.7 µM
  TGI: 25.3 µM
[32]
  GI50: 17 µM
  TGI: 46.6 µM
[33]
  GI50: 22.3 µM
  TGI: 46.6 µM
[34]
  GI50: 10.3 µM
  TGI: 21.9 µM
[35]
  GI50: 17.5 µM
  TGI: 58.5 µM
[36]
  GI50: 17.1 µM
  TGI: > 100 µM
[37]
  GI50: 16.3 µM
  TGI: 32.4 µM
[38]
  GI50: 16.5 µM
  TGI: 30.1 µM
[39]
  GI50: 14.4 µM
  TGI: 27.5 µM
[40]
  GI50: 13.4 µM
  TGI: 28 µM
[41]
  GI50: 15.3 µM
  TGI: 30.1 µM
[42]
  GI50: 20.7 µM
  TGI: 52.7 µM
[43]
  GI50: 52.2 µM
  TGI: > 100 µM
[44]
  GI50: 17.2 µM
  TGI: 36.7 µM

## COc1cc2c(c(OC)c1OC)-c1c(c3ccc([N+](=O)[O-])cc3c(=O)n1CCCN)C2=O
[1]
  GI50: 9.63 µM
  TGI: 19.1 µM
[2]
  GI50: 1.38 µM
  TGI: 3.28 µM
[45]
  GI50: 8.72 µM
  TGI: > 50 µM
[3]
  GI50: 7.68 µM
  TGI: 15 µM
[46]
  GI50: 0.828 µM
  TGI: 1.53 µM
[4]
  GI50: 0.478 µM
  TGI: 1.33 µM
[5]
  GI50: 1.32 µM
  TGI: 3.06 µM
[6]
  GI50: 9.89 µM
  TGI: 18.7 µM
[7]
  GI50: 0.895 µM
  TGI: 10.9 µM
[8]
  GI50: 0.826 µM
  TGI: 2.12 µM
[9]
  GI50: 0.892 µM
  TGI: 1.68 µM
[10]
  GI50: 8.16 µM
  TGI: 16.8 µM
[11]
  GI50: 8.22 µM
  TGI: 18 µM
[47]
  GI50: 4 µM
  TGI: 11.5 µM
[12]
  GI50: 1.29 µM
  TGI: 3.75 µM
[13]
  GI50: 7.1 µM
  TGI: 33 µM
[14]
  GI50: 0.92 µM
  TGI: 1.75 µM
[48]
  GI50: 2.9 µM
  TGI: 12.9 µM
[49]
  GI50: 7.21 µM
  TGI: 15.8 µM
[50]
  GI50: 12.8 µM
  TGI: 25.1 µM
[15]
  GI50: 6.64 µM
  TGI: 18.1 µM
[16]
  GI50: 14.2 µM
  TGI: > 50 µM
[17]
  GI50: 1.01 µM
  TGI: 2.06 µM
[18]
  GI50: 1.79 µM
  TGI: 6.42 µM
[19]
  GI50: 5.82 µM
  TGI: 14.2 µM
[20]
  GI50: 8.22 µM
  TGI: 17 µM
[21]
  GI50: 1.03 µM
  TGI: 2.35 µM
[51]
  GI50: 1.88 µM
  TGI: 7.85 µM
[22]
  GI50: 0.865 µM
  TGI: 1.63 µM
[23]
  GI50: 0.908 µM
  TGI: 1.74 µM
[24]
  GI50: 1.86 µM
  TGI: 7.82 µM
[25]
  GI50: 9.12 µM
  TGI: 17 µM
[26]
  GI50: 2.35 µM
  TGI: 10.2 µM
[27]
  GI50: 7.15 µM
  TGI: 15.8 µM
[28]
  GI50: 1.21 µM
  TGI: 2.77 µM
[29]
  GI50: 15.9 µM
  TGI: > 50 µM
[52]
  GI50: 7.27 µM
  TGI: 16.6 µM
[53]
  GI50: 0.952 µM
  TGI: 1.92 µM
[30]
  GI50: 0.937 µM
  TGI: 1.73 µM
[31]
  GI50: 1.77 µM
  TGI: 6.35 µM
[32]
  GI50: 0.799 µM
  TGI: 1.51 µM
[33]
  GI50: 11.1 µM
  TGI: 31.4 µM
[34]
  GI50: 8.06 µM
  TGI: 16.6 µM
[35]
  GI50: 8.7 µM
  TGI: 17.1 µM
[37]
  GI50: 14.4 µM
  TGI: 46.9 µM
[38]
  GI50: 0.835 µM
  TGI: 1.53 µM
[39]
  GI50: 9.12 µM
  TGI: 17.6 µM
[40]
  GI50: 9.38 µM
  TGI: 19.4 µM
[41]
  GI50: 10.7 µM
  TGI: 19.1 µM
[42]
  GI50: 13.2 µM
  TGI: 34.6 µM
[43]
  GI50: 5.49 µM
  TGI: 15.6 µM
[44]
  GI50: 2.05 µM
  TGI: 3.86 µM
